Assay results published in patent US20180071317A1, “USE OF AGENTS THAT ALTER THE PERITUMORAL ENVIRONMENT FOR THE TREATMENT OF CANCER” (SERVICIO ANDALUZ DE SALUD, priority 2011, published 2018).

Key:
[1] = test system: fibroblasts (PHF) co-cultured with human fibrosarcoma tumor cells (HT-1080); assay: Marker expression (IHC) in PHF co-cultured with HT-1080 tumor cells; type: cell-based; settings: co-culture with HT-1080; SP 1 μM + antagonist 1 μM; 48 h;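 also: cultures grown in fresh human plasma from a healthy donor, six replicates, value is percent of fibroblasts positive for the marker, compared with fibroblasts cultured without tumor cells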
Description: (§4) All cultures were maintained 48 hours, following which the same cells were included in paraffin blocks for subsequent analysis of the expression of different markers by immunohistochemistry (see Example 1). […] All experiments were carried out sixfold. Analyzed markers in fibroblast cells (stromal cells) were: TGF-α, TGF-β1, TGF-β2, TGF-β3, SPARC, MMP-3, MMP-7, MMP-9, MMP-11, MMP-13 and MMP-14.

[2] = test system: human primary macrophages (PHM); assay: Marker expression (immunohistochemistry) in human primary macrophages with SP alone or with NK1 antagonists; type: cell-based; settings: SP 1 μM + antagonist 1 μM; 48 h
Description: In this sense the next step was to analyze the effect exerted by the treatment with non-peptide NK1 antagonists in human primary macrophages (PHM) obtained and purified from pleural effusion samples obtained from men with chronic age range between 45 and 55 years. Briefly, the pleural fluid from chronic (rich in macrophages) was centrifuged.
After 48 hours of culture, cells were harvested and cellular paraffin blocks were constructed for immunohistochemical analysis (see Example 1). To analyze the expression of markers EGF, MMP-9, VEGF and IL-8 antibodies were used as follows: EGF (rabbit monoclonal antibody, anti-EGF; 07-1432. Merck-Millipore), MMP-9 (polyclonal rabbit anti-MMP-9: SAB4501896, Sigma-Aldrich), VEGF (mouse monoclonal anti-VEGF, GF25-100UG, Merck-Millipore) and TNF-α (mouse monoclonal anti-TNF-α, number MAB 1021 catalogue, obtained from Merck-Millipore). All of these antibodies were used at a concentration of 1/1000. System for labelling with a secondary antibody specific for the primary antibodies obtained from rabbit or mouse was used, as was necessary in each case, both the Envision (Dako). All experiments were carried out sixfold.

polymorphonuclear cells = assay: Marker expression (immunohistochemistry) in polymorphonuclear blood cells with SP alone or with NK1 antagonists; type: cell-based, human; settings: SP 1 μM + antagonist 1 μM; 48 h
Description: Briefly, heparinized blood from healthy donors was centrifuged so as to separate the various components thereof. Red blood cells remained at the bottom of the tube. Above them was a small white layer composed of the white blood cells and above, on top of the tube, the blood plasma. The layer of white cells was distributed in a culture plate of 24 wells by adding in each the same concentration of blood plasma from the same donor, supplemented with 1% antibiotic-antimycotic (Invitrogen). In each well, approximately 1000 cells (PHF) skin from the dermis were further added, obtained as previously described in Example 2. […] After 48 hours of incubation, cells were collected and embedded in paraffin for expression analysis by immunohistochemical techniques (as described in Example 1).
The expression of TGF molecular markers (anti-TGF 2, SAB4502956) and NF-kB (anti-NF-kB, SAB4501992) using specific antibodies against them were analyzed. All antibodies used were rabbit polyclonal antibodies obtained from Sigma Aldrich and were used at a concentration of 1/1000. All experiments were carried out sixfold.

[3] = test system: fibroblasts of tumors produced by tumor cell line of human melanoma (MEL HO); assay: Marker expression (IHC) in fibroblasts of tumor or peritumoral area, mouse model, MEL HO; type: in vivo; settings: MEL HO tumors in mice, 30 mg/kg/day oral, 7 days
Description: (§1) In vitro tests conducted in Example 5 are now carried out in an experimental model in mice in vivo. […] Subsequently, the expression in fibroblasts tumoral and peritumoral area of molecular markers associated with progression and maintenance of tumors: TGF-α, TGF-β1, TGF-β2, TGF-β3, MMP-7, MMP-11, MMP-14 were analyzed by immunohistochemistry.
(§2) Were injected with 2×10^7 cells tumors (corresponding, in each case to each of the tumor types as specified in Table 9) in 200 of PBS subcutaneously μl. […] Mice were randomized into two groups when the tumors reached a volume of 75 mm^3 One group was treated with non-peptide receptor antagonists NK1 and the other with placebo 200μ1. […] Tumors and samples of non-neoplastic stromal areas remote from the tumor were halved, formalin fixed (4%) and then were included in paraffin blocks for analysis by immunohistochemistry.
(§3) The expression on fibroblast cells obtained in the animal model was analyzed by immunohistochemistry, of the above markers: TGF-α, TGF-β1, TGF-β2, TGF-β3, MMP-7, MMP-1 1, MMP-14MP-14. Tables 32 to 35 depict the type of label used and the average percentage of fibroblasts present in non-tumor areas, tumor and peritumoral (±SD) which were expressing the marker shown in each of the tumor types developed from of the different cell lines used. This process was realized in mice treated with non-peptide antagonists of NK1 receptor and in untreated animals (control).

[4] = test system: fibroblasts (PHF) co-cultured with tumor cells of human Burkitt lymphoma (CA-46); assay: Marker expression (IHC) in PHF co-cultured with CA-46 tumor cells; type: cell-based; settings: PHF co-cultured with CA-46 + SP + NK1 antagonist;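 also: percentage of PHF fibroblasts positive for each marker, cultures grown in fresh human plasma from a healthy donor, six replicates, compared with fibroblasts cultured alone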
Description: All cultures were maintained 48 hours, following which the same cells were included in paraffin blocks for subsequent analysis of the expression of different markers by immunohistochemistry (see Example 1). The primary antibodies used to perform immunohistochemical assays and their concentration are detailed in Example 2. All experiments were carried out sixfold. Analyzed markers in fibroblast cells (stromal cells) were: TGF-α, TGF-β1, TGF-β2, TGF-β3, SPARC, MMP-3, MMP-7, MMP-9, MMP-11, MMP-13 and MMP-14.

[5] = test system: fibroblasts of tumors produced by human rhabdomyosarcoma tumor line (A-204); assay: Marker expression (IHC) in fibroblasts of tumor or peritumoral area, mouse model, A-204; type: in vivo; settings: A-204 tumors in mice, 30 mg/kg/day oral, 7 days
Description: as §1, §2, §3

[6] = test system: fibroblasts (PHF) co-cultured with tumor cells in human prostate carcinoma (22Rv1); assay: Marker expression (IHC) in PHF co-cultured with 22Rv1 tumor cells; type: cell-based; settings: co-culture with 22Rv1; SP 1 μM + antagonist 1 μM; 48 h;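 also: cultures grown on fresh plasma from a healthy donor, each experiment run sixfold, values give the percentage of fibroblasts positive for the given marker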
Description: as §4

[7] = test system: co-cultures of tumor cells-endothelial cells (C-12210); assay: Inhibition/survival in co-cultures of primary human tumor cells and endothelial cells; type: cell-based; settings: survival in reference to control, SP 1 μM, Vestipitant 1 μM
Description: To check that the interaction of primary tumor cells extracted directly from human with human vascular endothelial cells, promotes the survival of both cell types, co-cultures were performed microvascular endothelial cells from juvenile foreskins (PromoCell GmbH, Sickingenstraβe 63/65, D-69126 Heidelberg, Germany; reference C-12210) with tumor cells obtained directly from primary human tumors.
A total of 6 wells containing tumor cells were used as control for survival. Another 6 wells containing tumor cells were cultured with addition of endothelial cells.
Subsequently, cells were embedded in paraffin for analysis by immunohistochemistry. In order to identify the different cell types and quantity of them [They were labelled with primary antibodies specific for human endothelial cells (anti-CD31), carcinoma cells (Anti-Cytokeratins Spread Spectrum), glioma (Anti-glial fibrillary acidic protein), fibrosarcoma and malignant fibrous histiocytoma (Anti-Smooth Muscle Actin), Ewing sarcoma (Anti-CD99), Melanoma (Anti-HMB45), leukemias and lymphomas (Anti-Common Antigen Leucitario) and myeloma (anti CD 138). All antibodies are distributed by Dako and were used at the same concentration which is supplied (supplied pre-diluted—“ready to use”).

[8] = test system: fibroblasts (PHF) co-cultured with tumor cells of human Edwing sarcoma (MHH-ES-1); assay: Marker expression (IHC) in PHF co-cultured with MHH-ES-1 tumor cells; type: cell-based; settings: PHF co-cultured with MHH-ES-1 + SP + NK1 antagonist
Description: as §4

[9] = Carcinoma of lung, (Small cell carcinoma in Table 36)
[10] = Carcinoma of lung, Non Small Cell Carcinoma in Table 36
[11] = Carcinoma of thyroid, (Follicular Carcinoma in Table 36)
[12] = Carcinoma of thyroid, (Papillary Carcinoma in Table 36)

Cc1cc(F)ccc1[C@H]1CNCCN1C(=O)N(C)[C@H](C)c1cc(C(F)(F)F)cc(C(F)(F)F)c1 [Vestipitant]
43 ± 5%: Tumor cells co-cultured with endothelial cells + SP + Vestipitant ([7]; Non-Hodgkin's Lymphoma B)
62 ± 3%: Endothelial cells co-cultured with tumor cells + SP + Vestipitant ([7]; Carcinoma of stomach)
57 ± 6%: Tumor cells co-cultured with endothelial cells + SP + Vestipitant ([7]; Carcinoma of ovarian)
55 ± 4%: Endothelial cells co-cultured with tumor cells + SP + Vestipitant ([7]; Carcinoma of breast)
55 ± 5%: Tumor cells co-cultured with endothelial cells + SP + Vestipitant ([7]; Carcinoma of breast) | Endothelial cells co-cultured with tumor cells + SP + Vestipitant ([7]; Melanoma)
47 ± 6%: Tumor cells co-cultured with endothelial cells + SP + Vestipitant ([7]; Carcinoma of endometrial) | Tumor cells co-cultured with endothelial cells + SP + Vestipitant ([7]; Sarcoma of Ewing)
0%: PHF cells expressing MMP-3 [1] | PHF cells expressing MMP-7 [1] | PHF cells expressing MMP-9 [1] | PHF cells expressing MMP-11 [1] | PHF cells expressing MMP-13 [1] | PHF cells expressing MMP-14 [1] | PHF cells expressing SPARC [1] | PHF cells expressing TGF-α [1] | PHF cells expressing TGF-β1 [1] | PHF cells expressing TGF-β2 [1] | PHF cells expressing TGF-β3 [1] | macrophages expressing EGF [2] | macrophages expressing MMP-9 [2] | macrophages expressing VEGF [2] | polymorphonuclear cells expressing NF-kB (polymorphonuclear cells) | polymorphonuclear cells expressing TGF-β (polymorphonuclear cells) | fibroblasts expressing MMP-7 [3] | fibroblasts expressing MMP-11 [3] | fibroblasts expressing MMP-14 [3] | fibroblasts expressing TGF-α [3] | fibroblasts expressing TGF-β 1 [3] | fibroblasts expressing TGF-β 2 [3] | fibroblasts expressing TGF-β 3 [3] | cells expressing MMP-3 [4] | cells expressing MMP-7 [4] | cells expressing MMP-9 [4] | cells expressing MMP-11 [4] | cells expressing MMP-13 [4] | cells expressing MMP-14 [4] | cells expressing SPARC [4] | cells expressing TGF-α [4] | cells expressing TGF-β1 [4] | cells expressing TGF-β2 [4] | cells expressing TGF-β3 [4] | fibroblasts expressing MMP-7 [5] | fibroblasts expressing MMP-11 [5] | fibroblasts expressing MMP-14 [5] | fibroblasts expressing TGF-α [5] | fibroblasts expressing TGF-β 1 [5] | fibroblasts expressing TGF-β 2 [5] | fibroblasts expressing TGF-β 3 [5] | PHF cells expressing MMP-3 [6] | PHF cells expressing MMP-7 [6] | PHF cells expressing MMP-9 [6] | PHF cells expressing MMP-11 [6] | PHF cells expressing MMP-13 [6] | PHF cells expressing MMP-14 [6] | PHF cells expressing SPARC [6] | PHF cells expressing TGF-α [6] | PHF cells expressing TGF-β1 [6] | PHF cells expressing TGF-β2 [6] | PHF cells expressing TGF-β3 [6] | cells expressing MMP-3 [8] | cells expressing MMP-7 [8] | cells expressing MMP-9 [8] | cells expressing MMP-11 [8] | cells expressing MMP-13 [8] | cells expressing MMP-14 [8] | cells expressing SPARC [8] | cells expressing TGF-α [8] | cells expressing TGF-β1 [8] | cells expressing TGF-β2 [8] | cells expressing TGF-β3 [8]
54 ± 3%: Endothelial cells co-cultured with tumor cells + SP + Vestipitant ([7]; Carcinoma of Colon) | Endothelial cells co-cultured with tumor cells + SP + Vestipitant ([7]; Glioma) | Endothelial cells co-cultured with tumor cells + SP + Vestipitant ([7]; Renal carcinoma)
46 ± 3%: Endothelial cells co-cultured with tumor cells + SP + Vestipitant ([7]; Neuroblastoma)
51 ± 6%: Endothelial cells co-cultured with tumor cells + SP + Vestipitant ([7]; Carcinoma of prostate)
66 ± 3%: Tumor cells co-cultured with endothelial cells + SP + Vestipitant ([7]; Myeloma)
46 ± 4%: Endothelial cells co-cultured with tumor cells + SP + Vestipitant [7, 11] | Endothelial cells co-cultured with tumor cells + SP + Vestipitant ([7]; Sarcoma of Ewing)
56 ± 7%: Tumor cells co-cultured with endothelial cells + SP + Vestipitant ([7]; Fibrosarcoma) | Endothelial cells co-cultured with tumor cells + SP + Vestipitant ([7]; Myeloma)
56 ± 4%: Tumor cells co-cultured with endothelial cells + SP + Vestipitant ([7]; Carcinoma of stomach) | Tumor cells co-cultured with endothelial cells + SP + Vestipitant ([7]; Leukemia T) | Tumor cells co-cultured with endothelial cells + SP + Vestipitant ([7]; Neuroblastoma)
48 ± 6%: Tumor cells co-cultured with endothelial cells + SP + Vestipitant ([7]; Carcinoma of prostate) | Endothelial cells co-cultured with tumor cells + SP + Vestipitant ([7]; Non-Hodgkin's Lymphoma T)
52 ± 5%: Endothelial cells co-cultured with tumor cells + SP + Vestipitant [7, 12]
46 ± 7%: Endothelial cells co-cultured with tumor cells + SP + Vestipitant ([7]; Fibrosarcoma) | Tumor cells co-cultured with endothelial cells + SP + Vestipitant ([7]; Malignant fibrous histiocytoma)
56 ± 5%: Endothelial cells co-cultured with tumor cells + SP + Vestipitant ([7]; Carcinoma of endometrial)
67 ± 5%: Tumor cells co-cultured with endothelial cells + SP + Vestipitant [7, 9]
47 ± 4%: Endothelial cells co-cultured with tumor cells + SP + Vestipitant ([7]; Carcinoma of cervix) | Tumor cells co-cultured with endothelial cells + SP + Vestipitant ([7]; Carcinoma of cervix) | Endothelial cells co-cultured with tumor cells + SP + Vestipitant ([7]; Leukemia B)
65 ± 6%: Tumor cells co-cultured with endothelial cells + SP + Vestipitant ([7]; Carcinoma of Colon)
45 ± 6%: Endothelial cells co-cultured with tumor cells + SP + Vestipitant [7, 9]
55 ± 6%: Tumor cells co-cultured with endothelial cells + SP + Vestipitant [7, 12]
64 ± 6%: Tumor cells co-cultured with endothelial cells + SP + Vestipitant [7, 10]
76 ± 5%: Tumor cells co-cultured with endothelial cells + SP + Vestipitant ([7]; Hodgkin's Lymphoma)
81 ± 5%: Tumor cells co-cultured with endothelial cells + SP + Vestipitant ([7]; Non-Hodgkin's Lymphoma T)
45 ± 3%: Endothelial cells co-cultured with tumor cells + SP + Vestipitant [7, 10]
53 ± 5%: Tumor cells co-cultured with endothelial cells + SP + Vestipitant ([7]; Leukemia B)
65 ± 4%: Endothelial cells co-cultured with tumor cells + SP + Vestipitant ([7]; Non-Hodgkin's Lymphoma B)
53 ± 4%: Endothelial cells co-cultured with tumor cells + SP + Vestipitant ([7]; Malignant fibrous histiocytoma)
57 ± 4%: Endothelial cells co-cultured with tumor cells + SP + Vestipitant ([7]; Leukemia T)
54 ± 4%: Tumor cells co-cultured with endothelial cells + SP + Vestipitant ([7]; Renal carcinoma)
55 ± 3%: Endothelial cells co-cultured with tumor cells + SP + Vestipitant ([7]; Carcinoma of Pancreas)
44 ± 4%: Endothelial cells co-cultured with tumor cells + SP + Vestipitant ([7]; Carcinoma of ovarian) | Tumor cells co-cultured with endothelial cells + SP + Vestipitant ([7]; Melanoma)
47 ± 5%: Tumor cells co-cultured with endothelial cells + SP + Vestipitant ([7]; Carcinoma of Pancreas) | Tumor cells co-cultured with endothelial cells + SP + Vestipitant [7, 11] | Tumor cells co-cultured with endothelial cells + SP + Vestipitant ([7]; Glioma) | Endothelial cells co-cultured with tumor cells + SP + Vestipitant ([7]; Hodgkin's Lymphoma)
